Results on 14 molecules are retold here after patent publication US20050197350A1, “Novel quinoline, tetrahydroquinazoline, and pyrimidine derivatives and methods of treatment related to the use thereof” (TAISHO PHARMACEUTICAL CO., LTD., priority 2003, published 2005).

SMILES strings stand for the structures.

The subject of the assay is MCH receptors. Put plainly: MCH receptor activity class (method not given).
The mark [1] stands for this setting: class by percent of control at 10^−7 M or IC50.
[2] abbreviates: MCH receptor, class by percent of control at 10^-7 M or IC50.
Where [3] appears, read: class by percent of control at 10^-7 M or IC50.

In the case of `Cc1nc(N[C@H]2CC[C@@H](NC(=O)c3cncc(Br)c3)CC2)nc(N(C)C)c1C` [compound 2857, 5-bromo-N-(cis-4-{[4-(dimethylamino)-5,6-dimethylpyrimidin-2-yl]amino}cyclohexyl)nicotinamide], the class under setting [1] was 1 (Class 1: The value of percent of control at 10^−7 M was less than 40% or the value of IC50 was less than 50 nM.).

`Cc1cnc(N[C@H]2CC[C@@H](NC(=O)c3cc(Br)cc(Br)c3)CC2)nc1N(C)C` [compound 2933]: under setting [1], the class was 1 (Class 1: The value of percent of control at 10^−7 M was less than 40% or the value of IC50 was less than 50 nM.).

`CN(C)c1nc(N[C@H]2CC[C@@H](NC(=S)NC3CCCCCC3)CC2)nc2c1CCCC2` [compound 2055]: the class under setting [2] is 3 (Class 3 The value of percent of control at 10^−7 M was more than 60% or the value of IC50 was more than 200 nM.).

Regarding `CN(C)c1cc(N[C@H]2CC[C@@H](CNC(=O)c3cccc(C(F)(F)F)c3F)CC2)nc2ccccc12` [compound 191], the class under setting [2] was 3 (Class 3 The value of percent of control at 10^−7 M was more than 60% or the value of IC50 was more than 200 nM.).

Consider `CN(C)c1ccnc(N[C@H]2CC[C@@H](CNCc3ccccc3C#N)CC2)n1` [compound 1268], for which the class under setting [3] is recorded as 3 (Class 3 The value of percent of control at 10^−7 M was more than 60% or the value of IC50 was more than 200 nM.).

Regarding `CN(C)c1nc(N[C@H]2CC[C@@H](CNC(=O)Oc3cccc(C(F)(F)F)c3)CC2)nc2c1CCCC2` [compound 1602], the class (activity class 1-3: percent of control at 10^-7 M or IC50) is 3 (Class 3 The value of percent of control at 10^−7 M was more than 60% or the value of IC50 was more than 200 nM.).

With `CN(C)c1ccnc(N[C@H]2CC[C@@H](NC(=O)Cc3c(-c4ccccc4)[nH]c4ccccc34)CC2)n1` [compound 869, N-(cis-4-{[4-(dimethylamino)pyrimidin-2-yl]amino}cyclohexyl)-2-(2-phenyl-1H-indol-3-yl)acetamide], the class under setting [3] is listed as 1 (Class 1: The value of percent of control at 10^−7 M was less than 40% or the value of IC50 was less than 50 nM.).

For the molecule `CN(C)c1nc(N[C@H]2CC[C@@H](NC(=O)Nc3ccc4ccccc4c3)CC2)nc2c1CCCC2` [compound 1863], the class under setting [3] is 3 (Class 3 The value of percent of control at 10^−7 M was more than 60% or the value of IC50 was more than 200 nM.).

For the molecule `Cc1cc(N(C)C)nc(N[C@H]2CC[C@@H](C(=O)NCc3cccc(C(F)(F)F)c3)CC2)n1` [compound 2813, cis-4-{[4-(dimethylamino)-6-methylpyrimidin-2-yl]amino}-N-[3-(trifluoromethyl)benzyl]cyclohexanecarboxamide], the class under setting [1] is recorded as 2 (Class 2: The value of percent of control at 10^−7 M was from 40% to 60% or the value of IC′50 was from 50 nM to 200 nM.).

Consider `COc1ccccc1NC(=S)N[C@H]1CC[C@@H](Nc2nc3c(c(N(C)C)n2)CCCC3)CC1` [compound 1743], for which the class under setting [3] is 3 (Class 3 The value of percent of control at 10^−7 M was more than 60% or the value of IC50 was more than 200 nM.).

With `Cc1cc(Br)ccc1NC(=S)N[C@H]1CC[C@@H](Nc2nccc(N(C)C)n2)CC1` [compound 2329], the class (MCH receptor activity class 1-3 (percent of control at 10^-7 M or IC50)) is 3 (Class 3 The value of percent of control at 10^−7 M was more than 60% or the value of IC50 was more than 200 nM.).

On to `CN(C)c1nc(N[C@H]2CC[C@@H](NC(=O)c3c(F)c(F)c(F)c(F)c3F)CC2)nc2c1CCCC2` [compound 566], for which the class (class 1-3 by percent of control at 10^-7 M or IC50) is 3 (Class 3 The value of percent of control at 10^−7 M was more than 60% or the value of IC50 was more than 200 nM.).

As for `Cc1cc(N(C)C)nc(N[C@H]2CC[C@@H](C(=O)NCc3cccc(I)c3)CC2)n1` [compound 2806, cis-4-{[4-(dimethylamino)-6-methylpyrimidin-2-yl]amino}-N-(3-iodobenzyl)cyclohexanecarboxamide], the class under setting [1] is listed as 1 (Class 1: The value of percent of control at 10^−7 M was less than 40% or the value of IC50 was less than 50 nM.).

For `C[C@H](C(=O)N[C@H]1CC[C@@H](Nc2nccc(N(C)C)n2)CC1)c1ccc(-c2ccccc2)c(F)c1` [compound 880], under setting [3], the class was 3 (Class 3 The value of percent of control at 10^−7 M was more than 60% or the value of IC50 was more than 200 nM.).
